Entries after “also recorded” stand apart in the source; their conditions may differ.
Legend:
Assay type in all cases: biochemical, barley
ALV001 [1] = target: T1, ALV001 (Hordeum vulgare, UniProt P25250); test: ALV001 activity reconstituted in orange juice with or without sodium metabisulfite; set-up: ALV001 is the proenzyme or zymogen for Endoprotease B (Isoform 2); made in house; conditions: 3 mg/ml ALV001 in orange juice, 840 μM sodium metabisulfite
Experimental: 3 mg/ml ALV001 was reconstituted in orange juice with or without 840 μM sodium metabisulfite. Chromogenic enzyme activity was measured at the indicated timepoints to determine the relative amount of functional enzyme.
3 mg/ml ALV001 was reconstituted in orange juice with or without 840 μM sodium metabisulfite. Chromogenic enzyme activity was measured as described above, at the indicated timepoints, to determine the relative amount of functional enzyme, as shown in FIG. 13.
Target sequence in this assay (P25250 29-373 limits assumed): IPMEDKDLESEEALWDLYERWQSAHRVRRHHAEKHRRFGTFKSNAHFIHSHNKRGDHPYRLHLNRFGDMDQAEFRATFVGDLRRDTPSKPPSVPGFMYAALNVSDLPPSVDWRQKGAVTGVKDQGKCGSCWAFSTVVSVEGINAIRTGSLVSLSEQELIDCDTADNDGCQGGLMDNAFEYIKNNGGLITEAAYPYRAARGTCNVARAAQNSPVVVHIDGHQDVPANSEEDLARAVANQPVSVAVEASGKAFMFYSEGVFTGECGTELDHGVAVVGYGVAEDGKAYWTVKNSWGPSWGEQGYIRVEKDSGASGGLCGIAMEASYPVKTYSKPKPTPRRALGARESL

ALV001 [2] = target: T1, ALV001; test: Stabilization of ALV001 in ex vivo postprandial gastric fluid by added antioxidants/reducing/chelating agents (chromogenic activity); set-up: ALV001 is the proenzyme or zymogen for Endoprotease B (Isoform 2); made in house; conditions: for stabilization (preservation of activity) of ALV001 in ex vivo gastric fluid: summary statement, concentration not given; for stability of ALV001 activity with agent added (FIG. 6): 15 minute postprandial gastric fluid, 37° C., 1.5-45 minutes
Experimental: (§1) Frozen human postprandial gastric fluids were thawed and centrifuged at 21,000 g for 5 minutes to pellet insoluble material, and the supernatant was used for this example. Between 50 and 200 μl of gastric fluid were added to the wells of a 96-well plate and incubated at 37° C. When antioxidants were added, they were added at this step. […] At the specified sampling time, a 1.6 μl sample of gastric fluid was diluted in assay buffer to give a final volume of 280 μl, and the concentration was measured by a chromogenic activity assay using Z-Phe-Arg-p-nitroaniline (pNA) as the substrate. The method is based on the ability of pNA to absorb at 410 nm when released from the substrate. ALV001 is the proenzyme or zymogen for Endoprotease B (Isoform 2) that cleaves the C-terminal side of the arginine in the sequence Phe-Arg. Enzymatic cleavage and subsequent release of pNA may be monitored by the change in absorbance at 410 nm. To determine the reaction rate, the absorbance at 410 nm was measured every 10 seconds for 1 minute. The slope of the regression line divided by the enzyme concentration was the reported enzyme activity.
A control without MTG was also included.
Shown in FIG. 6, selected reducing agents were added at 5 mM to ex vivo postprandial gastric fluid that was obtained from a healthy volunteer 15 minutes after eating and was incubated at 37° C. The proenzyme ALV001 was added to the gastric fluid. Acetate buffer at pH 4.5 was used as a control, because ALV001 is fully activated under these conditions. Samples were taken to determine ALV001 activity after 1.5, 5, 10, 20, […].
Samples were taken at 1.5, 5, 10, 20, and 40 minutes.
Target sequence in this assay (P25250 29-373 limits assumed): as above

ALV001 [3] = target: T1, ALV001; test: as above; set-up: ALV001 is the proenzyme or zymogen for Endoprotease B (Isoform 2); made in house; conditions: for stabilization of ALV001 (FIG. 11): ALV001 at 0.12 mg/ml, 1.5-40 minutes; for stability of ALV001 in postprandial gastric fluid (FIG. 7): agent at 0.5 mM
Target sequence in this assay (P25250 29-373 limits assumed): as above

ALV001 [4] = target: T1, ALV001; test: Stabilization of ALV001* in early postprandial gastric fluid by reducing agents; set-up: ALV001*(the active form of ALV001) is produced upon proteolytic cleavage of ALV001; made in house
Experimental: as §1
Target sequence in this assay (P25250 134-373): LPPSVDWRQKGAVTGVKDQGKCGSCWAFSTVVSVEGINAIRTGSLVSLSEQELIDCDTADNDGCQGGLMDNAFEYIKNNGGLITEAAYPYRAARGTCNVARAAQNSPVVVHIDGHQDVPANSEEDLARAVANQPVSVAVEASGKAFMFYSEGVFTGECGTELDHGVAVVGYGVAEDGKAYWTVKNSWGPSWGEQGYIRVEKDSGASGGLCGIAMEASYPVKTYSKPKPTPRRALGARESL

ALV001 [5] = target: T1, ALV001; test: Restoration of ALV001 activity by agents added after 15 minutes incubation in postprandial gastric fluid; set-up: ALV001 is the proenzyme or zymogen for Endoprotease B (Isoform 2); made in house; conditions: agent at 5 mM added after 15 minutes at 37° C. in postprandial gastric fluid; 1.5-40 minutes after addition
Experimental: ALV001 was added to postprandial gastric fluid and incubated for 15 minutes at 37° C. Reducing agents were added at 5 mM to the gastric fluid and then samples were taken to examine ALV001 activity at 1.5, 5, 10, 20, and 40 minutes after the addition of the reducing agents.
Target sequence in this assay (P25250 29-373 limits assumed): as the sequence (P25250 29-373 limits assumed) above

ALV001 [6] = target: T1, ALV001; test: ALV001 activity under simulated postprandial gastric conditions with cysteine; set-up: ALV001 is the proenzyme or zymogen for Endoprotease B (Isoform 2); made in house; conditions: gluten-free meal chewed and spit into resting gastric fluid, ALV003 and varying levels of cysteine, simulated gastric acid secretion
Experimental: A gluten-free meal was chewed and spit into resting gastric fluid. ALV003 and varying levels of cysteine were added at time 0 and the stability of ALV001 activity was tested by monitoring chromogenic enzyme activity over time. Gastric acid secretion was simulated throughout the experiment.
A gluten-free meal was chewed and spit into resting gastric fluid. ALV003 and varying levels of cysteine were added at time 0, and the stability of ALV001 activity was measured by monitoring chromogenic enzyme activity over time. Gastric acid secretion was simulated throughout the experiment.
Target sequence in this assay (P25250 29-373 limits assumed): as above

ALV001 [7] = target: T1, ALV001; test: Reversal of loss of enzyme activity: ALV003 pre-incubated in 15 minute postprandial gastric fluid, then MTG added; set-up: ALV001*(the active form of ALV001) is produced upon proteolytic cleavage of ALV001; made in house; conditions: 50 mM MTG, approximately 20 minutes after addition to pre-incubated ALV003 in 15 minute postprandial gastric fluid
Target sequence in this assay (P25250 134-373): as the sequence (P25250 134-373) above

Row | Compound | stabilization of ALV001* in early postprandial gastric fluid (ALV001 [4]) | stabilization (preservation of activity) of ALV001 in ex vivo gastric fluid (ALV001 [2]) | stability of ALV001 activity with agent added (FIG. 6) (ALV001 [2]; agent at 5 mM) | also measured
1 | O=S([O-])[O-].[Na+].[Na+] [sodium sulfite] | demonstrated to stabilize ALV001* | particularly effective in stabilizing ALV001 | most effective stabilization | restoration of ALV001 enzyme activity (ALV001 [5]): partially restored the enzyme activity; concentration down to which the stabilizing effect persists (ALV001 [3]; postprandial gastric fluid (FIG. 8)): 0.05 mM; stabilization of ALV001 (FIG. 8) (ALV001 [3]; sodium sulfite time course, postprandial gastric fluid): particularly effective
2 | Cl.O=C(O)CCP(CCC(=O)O)CCC(=O)O [TCEP, tris(2-Carboxyethyl)phosphine hydrochloride] | demonstrated to stabilize ALV001* |  |  | 
3 | N[C@@H](CS)C(=O)O [L-cysteine] | demonstrated to stabilize ALV001* |  | Substantial improvements in stability | stability of ALV001 activity under simulated postprandial gastric conditions (FIG. 14) (ALV001 [6]): stabilizes ALV001 activity
4 | O=S([O-])([O-])=S.[Na+].[Na+] [sodium thiosulfate] | demonstrated to stabilize ALV001* |  |  | stability of ALV001 in postprandial gastric fluid (FIG. 7) (ALV001 [3]): demonstrated to improve the stability of ALV001
5 | O=C1O[C@H]([C@@H](O)CO)C(O)=C1O [ascorbic acid] | did not stabilize the enzyme | did not stabilize | rapidly inactivated | 
6 | OCC(O)CS (centres unmarked) [MTG, monothioglycerol] |  |  |  | restoration of enzymatic activity of ALV001* (FIG. 5) (ALV001 [7]): nearly full enzymatic activity was restored; loss of enzymatic activity of ALV001 (FIG. 4) (ALV001 [3]; 50 mM MTG, 15 minute postprandial gastric fluid): no loss; rate of loss of enzymatic activity of ALV001 (FIG. 4) (ALV001 [3]; MTG 0.01 to 50 mM, 15 minute postprandial gastric fluid): decreased with increasing MTG concentrations

Further lines, with some results ahead:

Row | stabilization of ALV001* in early postprandial gastric fluid (ALV001 [4]) | Compound | stabilization (preservation of activity) of ALV001 in ex vivo gastric fluid (ALV001 [2]) | stability of ALV001 activity with agent added (FIG. 6) (ALV001 [2]; agent at 5 mM) | also measured
7 | demonstrated to stabilize ALV001* | O=S([O-])S(=O)(=O)[O-].[Na+].[Na+] [sodium metabisulfite] | particularly effective in stabilizing ALV001 |  | stability of ALV001 activity in orange juice (FIG. 13) (ALV001 [1]): stabilizes ALV001 activity; also recorded: increased stability; stabilization of ALV001 (FIG. 11) (ALV001 [3]; agent at 25 μM, postprandial gastric fluid): considerable stabilization; stability of ALV001 (ALV001 [3]; agent at 50 μM): improved stability of ALV001; stabilization of ALV001 (FIG. 11) (ALV001 [3]; agent at 50 μM, postprandial gastric fluid): best stabilization; stability of ALV001 in postprandial gastric fluid (FIG. 7) (ALV001 [3]): demonstrated to improve the stability of ALV001
8 | did not stabilize the enzyme | CSCC[C@H](N)C(=O)O [L-methionine] | did not stabilize |  | 
9 | demonstrated to stabilize ALV001* | O=C(O)CCCC[C@@H]1CCSS1 (racemic) [lipoic acid] |  |  | stability of ALV001 in postprandial gastric fluid (FIG. 7) (ALV001 [2]; agent at 5 mM): demonstrated to improve the stability of ALV001
10 | demonstrated to stabilize ALV001* | CC(=O)N[C@@H](CS)C(=O)O [N-acetylcysteine] |  | Substantial improvements in stability | restoration of ALV001 enzyme activity (ALV001 [5]): partially restored the enzyme activity
11 | demonstrated to stabilize ALV001* | O[C@H](CS)[C@H](O)CS (racemic) [dithiothreitol] |  |  | 
12 | demonstrated to stabilize ALV001* | OCCS [2-mercaptoethanol] |  |  | 
13 | demonstrated to stabilize ALV001* | N[C@@H](CCS)C(=O)O [homocysteine] |  |  | 
